PubChem BioAssay AID2060337 (Molecular Pharmacology Branch, DTP, NCI, 2025)
Several values for one entry are separate records, joined by “and”; a condition that tells them apart may be missing. Equal values may be shown once.

Test system: 832693-133-R-J1-PDC multi-cell spheroids, viability
Assay: Anticancer human tumor 832693-133-R-J1-PDC patient-derived head and neck squamous carcinoma cell line growth inhibition [IpAb]
Conditions: for viability, T/C: stronger effect = lower value
Source text: Combinatorial screen of targeted agents with ipatasertib and abemaciclib in multi-cell type tumor spheroids
A high-throughput screen of multi-cell type tumor spheroids was designed to identify active combinations of targeted small molecules and ipatasertib or abemaciclib. Complex spheroids include a stromal component modeled by human endothelial cells (HUVEC) and fibroblasts modeled by human mesenchymal stem cells (MSCs). The concentration ranges selected for each drug and investigational agent were based upon clinically achievable concentrations if the clinical Cmax of the agent was known.
Compounds. The drugs and investigational agents: ipatasertib (NSC767898), abemaciclib(NSC768073), selumetinib (NSC741078), trametinib (758246), adavosertib (NSC754352), everolimus (NSC733504), sapanisertib (NSC764658), vemurafenib (NSC761431), venetoclax (NSC766270), copanlisib (NSC809693), apelisib (NSC765974), palbociblib (NSC758247), vemurafenib (NSC761431), dabrafenib (NSC764134), ravoxertinib (NSC781343), BMS-387032 (NSC767048), sotorasib (NSC818433), talazoparib (NSC767125) and afursertib (NSC778305), were obtained from the National Cancer Institute (NCI) Developmental Therapeutics Program Chemical Repository. The FDA-approved anticancer drug set is available from the NCI Developmental Therapeutics Program. […] The stock solutions were prepared in dimethyl sulfoxide (DMSO, Sigma-Aldrich, St. Louis, MO, cat. D2650) at 800-fold the tested concentration and stored at -70 degrees C prior to their use. All drugs and investigational agents were tested over a range starting from a high concentration at or near the clinical Cmax and decreasing in half-log increments. If the clinical Cmax for an agent had not been determined, the highest concentration tested was 10 microM.
NCI60 Cell Culture. NCI60 cell lines were obtained from the NCI Developmental Therapeutics Program Tumor Repository. For each lot of cells, the Repository performed Applied Biosystems AmpFLSTR Identifiler testing with PCR amplification to confirm consistency with the published Identifier STR profile for each cell line. Cells were kept in continuous culture for no more than 20 passages. The optimal seeding densities for each of the cell lines at each time point assessed were determined prior to performing the concentration response studies. Briefly, the NCI60 human tumor lines were grown as monolayers in RPMI 1640 medium supplemented with 10% FBS and 2 mmol/L L-glutamine.
An additional 9 lines were from the NCI60 cell line panel including MDA-MB-231 breast carcinoma, MDA-MB-468 breast carcinoma, MCF7 breast carcinoma, Hs578T breast carcinoma, MALME-3M melanoma, SK-MEL-2 melanoma, SK-OV-3 ovarian carcinoma, DU-145 prostate carcinoma, PC-3 prostate carcinoma, all cell lines along with major genetic alterations are listed on Table 2. Pooled donor human umbilical vein endothelial cells (HUVEC, Lonza, cat. CC-2519) and human mesenchymal stem cells (hMSC, Lonza, cat. PT-2501) were purchased from Lonza (Walkersville, MD).
PDMR cell lines were grown in complete medium (DC medium): Dulbecco's modified Eagle's medium (DMEM)/F12 supplemented with 5% fetal bovine serum (FBS), 2 mM L-glutamine, 100 U/mL penicillin and 100 µg/ml streptomycin, 0.4 µg/ml hydrocortisone, 10 ng/ml epidermal growth factor (EGF) recombinant human protein, 24 µg/mL adenine, and 0.1 mg/mL primocin. During culture from frozen stock vials, PDMR cells were cultured in the same medium containing 10 µM Y-27632 (see Table 3). The PDCs were cultured in complete DMEM/F12 media without 10 microM Y-27632 dihydrochloride for at least two passages prior to the screen. The pooled donor HUVEC and hMSC were cultured in endothelial cell growth medium 2 (PromoCell, Heidelberg, Germany, cat. C-22011) and mesenchymal stem cell growth medium 2 (PromoCell, cat. C-28009), respectively. For all experiments, HUVEC and hMSC were used at passages </=5.
[…]

[1] = curve of first compound, second compound 0.01 µM
[2] = curve of first compound, second compound 0.0316 µM
[3] = curve of first compound, second compound 0.1 µM
[4] = curve of first compound, second compound 0.316 µM
[5] = curve of first compound, second compound 1 µM
[6] = second compound 0.01 µM, first compound 0.0316 µM
[7] = second compound 0.01 µM, first compound 0.1 µM
[8] = second compound 0.0316 µM, first compound 0.0316 µM
[9] = second compound 0.0316 µM, first compound 0.1 µM
[10] = second compound 0.1 µM, first compound 0.0316 µM
[11] = second compound 0.1 µM, first compound 0.1 µM
[12] = second compound 0.316 µM, first compound 0.0316 µM
[13] = second compound 0.316 µM, first compound 0.1 µM
[14] = second compound 1 µM, first compound 0.0316 µM
[15] = second compound 1 µM, first compound 0.1 µM
[16] = second compound 0.1 µM, first compound 0.316 µM
[17] = second compound 0.1 µM, first compound 1 µM
[18] = second compound 0.1 µM, first compound 3.16 µM
[19] = second compound 0.1 µM, first compound 10 µM
[20] = second compound 0.316 µM, first compound 0.316 µM
[21] = second compound 0.316 µM, first compound 1 µM
[22] = second compound 0.316 µM, first compound 3.16 µM
[23] = second compound 0.316 µM, first compound 10 µM
[24] = second compound 1 µM, first compound 0.316 µM
[25] = second compound 1 µM, first compound 1 µM
[26] = second compound 1 µM, first compound 3.16 µM
[27] = second compound 1 µM, first compound 10 µM
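Also: spheroids exposed to the drugs for one week before the viability readout.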
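For viability, T/C in this document: 100% = DMSO vehicle control wells.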

Cn1ncnc1[C@H]1c2n[nH]c(=O)c3cc(F)cc(c23)N[C@@H]1c1ccc(F)cc1 + CCN1CCN(Cc2ccc(Nc3ncc(F)c(-c4cc(F)c5nc(C)n(C(C)C)c5c4)n3)nc2)CC1
IC50 [1]: > 100 nM
IC50 [2]: > 100 nM
IC50 [3]: > 100 nM
IC50 [4]: > 100 nM
IC50 [5]: > 100 nM
viability, T/C (second compound 0.01 µM, first compound 0.000316 µM): 101%
viability, T/C (second compound 0.01 µM, first compound 0.001 µM): 109%
viability, T/C (second compound 0.01 µM, first compound 0.00316 µM): 93.2%
viability, T/C (second compound 0.01 µM, first compound 0.01 µM): 91.9%
viability, T/C [6]: 94.7%
viability, T/C [7]: 77.3%
viability, T/C (second compound 0.0316 µM, first compound 0.000316 µM): 90.5%
viability, T/C (second compound 0.0316 µM, first compound 0.001 µM): 86.1%
viability, T/C (second compound 0.0316 µM, first compound 0.00316 µM): 73.8%
viability, T/C (second compound 0.0316 µM, first compound 0.01 µM): 74.6%
viability, T/C [8]: 76%
viability, T/C [9]: 69.5%
viability, T/C (second compound 0.1 µM, first compound 0.000316 µM): 60.1%
viability, T/C (second compound 0.1 µM, first compound 0.001 µM): 58%
viability, T/C (second compound 0.1 µM, first compound 0.00316 µM): 61%
viability, T/C (second compound 0.1 µM, first compound 0.01 µM): 70.5%
viability, T/C [10]: 63%
viability, T/C [11]: 63.2%
viability, T/C (second compound 0.316 µM, first compound 0.000316 µM): 59.1%
viability, T/C (second compound 0.316 µM, first compound 0.001 µM): 53.6%
viability, T/C (second compound 0.316 µM, first compound 0.00316 µM): 60.5%
viability, T/C (second compound 0.316 µM, first compound 0.01 µM): 56.5%
viability, T/C [12]: 60.8%
viability, T/C [13]: 56.3%
viability, T/C (second compound 1 µM, first compound 0.000316 µM): 63.6%
viability, T/C (second compound 1 µM, first compound 0.001 µM): 56.2%
viability, T/C (second compound 1 µM, first compound 0.00316 µM): 60.6%
viability, T/C (second compound 1 µM, first compound 0.01 µM): 63.5%
viability, T/C [14]: 65.2%
viability, T/C [15]: 48.2%

Cn1ncnc1[C@H]1c2n[nH]c(=O)c3cc(F)cc(c23)N[C@@H]1c1ccc(F)cc1
viability, T/C (compound 0.000316 µM): 110% and 111%
viability, T/C (compound 0.001 µM): 97.9% and 109%
viability, T/C (compound 0.00316 µM): 98.3% and 96.9%
viability, T/C (compound 0.01 µM): 86.5% and 107%
viability, T/C (compound 0.0316 µM): 95.6% and 93.8%
viability, T/C (compound 0.1 µM): 86.1% and 84.1%
IC50 (curve of compound): > 100 nM

Cc1nc(NC(=O)N2CCCC2C(N)=O)sc1-c1ccnc(C(C)(C)C(F)(F)F)c1 (configuration not stated) + CCN1CCN(Cc2ccc(Nc3ncc(F)c(-c4cc(F)c5nc(C)n(C(C)C)c5c4)n3)nc2)CC1
IC50 [1]: 536 nM
IC50 [2]: 264 nM
IC50 [3]: 138 nM
IC50 [4]: 128 nM
IC50 [5]: 35.9 nM
viability, T/C [6]: 80.1%
viability, T/C [7]: 87.8%
viability, T/C (second compound 0.01 µM, first compound 0.316 µM): 65.7%
viability, T/C (second compound 0.01 µM, first compound 1 µM): 29.2%
viability, T/C (second compound 0.01 µM, first compound 3.16 µM): 16.2%
viability, T/C (second compound 0.01 µM, first compound 10 µM): 3.69%
viability, T/C [8]: 75.8%
viability, T/C [9]: 69%
viability, T/C (second compound 0.0316 µM, first compound 0.316 µM): 46%
viability, T/C (second compound 0.0316 µM, first compound 1 µM): 21.4%
viability, T/C (second compound 0.0316 µM, first compound 3.16 µM): 10.5%
viability, T/C (second compound 0.0316 µM, first compound 10 µM): 3.09%
viability, T/C [10]: 57.4%
viability, T/C [11]: 53.5%
viability, T/C [16]: 42.3%
viability, T/C [17]: 21.4%
viability, T/C [18]: 11.4%
viability, T/C [19]: 2.17%
viability, T/C [12]: 55.4%
viability, T/C [13]: 49.4%
viability, T/C [20]: 44.9%
viability, T/C [21]: 19.4%
viability, T/C [22]: 11.5%
viability, T/C [23]: 2.65%
viability, T/C [14]: 49.7%
viability, T/C [15]: 48%
viability, T/C [24]: 37.6%
viability, T/C [25]: 25.1%
viability, T/C [26]: 14%
viability, T/C [27]: 6.29%

Cn1ncc(Cl)c1-c1cc(C(=O)NC(CN)Cc2cccc(F)c2)sc1Cl (configuration not stated) + CC(C)NCC(C(=O)N1CCN(c2ncnc3c2C(C)CC3O)CC1)c1ccc(Cl)cc1
IC50 [3]: 4960 nM
IC50 [4]: 4800 nM
IC50 [5]: 3750 nM
IC50 (curve of first compound, second compound 3.16 µM): 4140 nM
IC50 (curve of first compound, second compound 10 µM): 2630 nM
viability, T/C [10]: 94.7%
viability, T/C [11]: 87.5%
viability, T/C [16]: 75.5%
viability, T/C [17]: 61.1%
viability, T/C [18]: 90.1%
viability, T/C [19]: 0.23%
viability, T/C [12]: 82.7%
viability, T/C [13]: 73.1%
viability, T/C [20]: 79.9%
viability, T/C [21]: 63.2%
viability, T/C [22]: 92.3%
viability, T/C [23]: 0.22%
viability, T/C [14]: 47.9%
viability, T/C [15]: 59.8%
viability, T/C [24]: 54.6%
viability, T/C [25]: 56.6%
viability, T/C [26]: 74.3%
viability, T/C [27]: 0.2%
viability, T/C (second compound 3.16 µM, first compound 0.0316 µM): 50.1%
viability, T/C (second compound 3.16 µM, first compound 0.1 µM): 59.1%
viability, T/C (second compound 3.16 µM, first compound 0.316 µM): 66.1%
viability, T/C (second compound 3.16 µM, first compound 1 µM): 70.3%
viability, T/C (second compound 3.16 µM, first compound 3.16 µM): 80.8%
viability, T/C (second compound 3.16 µM, first compound 10 µM): 0.2%
viability, T/C (second compound 10 µM, first compound 0.0316 µM): 67.2%
viability, T/C (second compound 10 µM, first compound 0.1 µM): 73%
viability, T/C (second compound 10 µM, first compound 0.316 µM): 69.5%
viability, T/C (second compound 10 µM, first compound 1 µM): 73.8%
viability, T/C (second compound 10 µM, first compound 3.16 µM): 46.1%
viability, T/C (second compound 10 µM, first compound 10 µM): 0.24%
